Assay results: ChEMBL document CHEMBL2385023, “Negative allosteric modulators of metabotropic glutamate receptor subtype” (ACS Med Chem Lett, 2013)

Assays:
Mus musculus = assay: Anxiolytic activity in ip dosed Harlan CD1 mouse assessed as inhibition of marble burying activity administered 15 to 30 mins prior to test; type: functional
[1] = Oral bioavailability in rat; type: ADME, organism-based; conditions: in vivo
[2] = Plasma protein binding in human; type: ADME, cell-free; conditions: read-out: PPB (converted)
[3] = Oral bioavailability in cynomolgus monkey; type: ADME, organism-based, Macaca fascicularis; conditions: in vivo
[4] = Ratio of drug level in brain to plasma in mouse at 10 mg/kg, po; type: ADME, organism-based; set-up: dose 10 mg/kg, route oral; conditions: read-out: BPR

Row | Structure (SMILES) | ED (Mus musculus) [mg/kg] | bioavailability [1] [%] | fraction unbound [2] | bioavailability [3] [%] | Kp [4]
1 | CCc1cccc(NC(=O)c2cc(Oc3cncnc3)cc(C)n2)n1 | 10 | 39 |  |  | 
2 | Cc1cc(Oc2cnc(C)nc2)cc(C(=O)Nc2ccc(F)cn2)n1 | 10 |  |  |  | 
3 | Cc1cc(Oc2cncnc2)cc(C(=O)Nc2ccc(F)cn2)n1 | 10 | 30 | 0.086 | 42 | 5.9
4 | Cc1cc(Oc2cncc(F)c2)cc(C(=O)Nc2ccc(F)cn2)n1 | 30 | 67 |  | 25 | 4.7
